Source: paper PMC6812009, “Covalent Aurora A regulation by the metabolic integrator coenzyme A” (Redox Biology, 2019)

Key:
Test in all cases: Kinase profiling screen (radioactive filter-binding assay)
Type in all cases: biochemical
ABL = ABL (Homo sapiens, UniProt P00519); details: 100 μM compound, 5 μM ATP; read-out: Kinase activity, % of activity in the absence of inhibitor
Experimental: (§1) Profiling of 117 protein kinases with CoA, dpCoA and ADP was carried out at the International Centre for Protein Kinase Profiling at the University of Dundee. Each compound was tested in vitro, in duplicate, at 100 μM final concentration using recombinant kinases, model substrates and optimal concentrations of ATP. Bacterially expressed full-length His-Aurora A was used to determine the IC50 value for CoA (in the presence or absence of DTT), dpCoA, ADP and desulfo-CoA. The assay was performed in the presence of 5 μM competing ATP. To examine whether the inhibitory effect of CoA on Aurora A is modulated by TPX2, IC50 values for CoA were also generated in the presence and absence of 1 μg TPX2 (residues 1–43) fragment.

BRSK1 = target: T1, BRSK1 (Homo sapiens, UniProt Q8TDC3); details: 100 μM compound, 20 μM ATP; read-out: Kinase activity, % of activity in the absence of inhibitor
T1 sequence (Q8TDC3 1-778): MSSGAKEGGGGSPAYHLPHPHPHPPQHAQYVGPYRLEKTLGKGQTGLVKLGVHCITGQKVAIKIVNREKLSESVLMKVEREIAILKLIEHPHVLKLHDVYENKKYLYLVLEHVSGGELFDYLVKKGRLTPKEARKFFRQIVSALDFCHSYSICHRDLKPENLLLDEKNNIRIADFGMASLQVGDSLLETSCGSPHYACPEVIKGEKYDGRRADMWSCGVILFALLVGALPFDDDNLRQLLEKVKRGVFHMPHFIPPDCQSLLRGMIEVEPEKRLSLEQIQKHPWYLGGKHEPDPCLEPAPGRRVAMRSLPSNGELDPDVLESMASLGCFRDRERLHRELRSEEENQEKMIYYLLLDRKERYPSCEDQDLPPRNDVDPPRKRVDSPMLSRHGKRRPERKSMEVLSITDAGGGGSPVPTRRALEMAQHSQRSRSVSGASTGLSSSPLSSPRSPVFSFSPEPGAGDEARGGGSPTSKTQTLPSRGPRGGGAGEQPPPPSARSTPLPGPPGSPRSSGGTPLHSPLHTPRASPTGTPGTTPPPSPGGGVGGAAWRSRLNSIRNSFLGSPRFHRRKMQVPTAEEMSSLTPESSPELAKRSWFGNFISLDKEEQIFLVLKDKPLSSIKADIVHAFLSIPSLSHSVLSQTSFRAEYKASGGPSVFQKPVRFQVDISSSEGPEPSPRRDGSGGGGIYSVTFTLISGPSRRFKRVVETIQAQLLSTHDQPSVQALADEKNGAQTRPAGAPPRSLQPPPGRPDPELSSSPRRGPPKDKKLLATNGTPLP
Experimental: as §1

CDK2-Cyclin A = CDK2-Cyclin A (Homo sapiens, UniProt P24941); details: 100 μM compound, 20 μM ATP; read-out: Kinase activity, % of activity in the absence of inhibitor
Experimental: as §1

DAPK1 = DAPK1 (Homo sapiens, UniProt P53355); details: 100 μM compound, 5 μM ATP; read-out: Kinase activity, % of activity in the absence of inhibitor
Chain of DAPK1 (P53355 whole entry): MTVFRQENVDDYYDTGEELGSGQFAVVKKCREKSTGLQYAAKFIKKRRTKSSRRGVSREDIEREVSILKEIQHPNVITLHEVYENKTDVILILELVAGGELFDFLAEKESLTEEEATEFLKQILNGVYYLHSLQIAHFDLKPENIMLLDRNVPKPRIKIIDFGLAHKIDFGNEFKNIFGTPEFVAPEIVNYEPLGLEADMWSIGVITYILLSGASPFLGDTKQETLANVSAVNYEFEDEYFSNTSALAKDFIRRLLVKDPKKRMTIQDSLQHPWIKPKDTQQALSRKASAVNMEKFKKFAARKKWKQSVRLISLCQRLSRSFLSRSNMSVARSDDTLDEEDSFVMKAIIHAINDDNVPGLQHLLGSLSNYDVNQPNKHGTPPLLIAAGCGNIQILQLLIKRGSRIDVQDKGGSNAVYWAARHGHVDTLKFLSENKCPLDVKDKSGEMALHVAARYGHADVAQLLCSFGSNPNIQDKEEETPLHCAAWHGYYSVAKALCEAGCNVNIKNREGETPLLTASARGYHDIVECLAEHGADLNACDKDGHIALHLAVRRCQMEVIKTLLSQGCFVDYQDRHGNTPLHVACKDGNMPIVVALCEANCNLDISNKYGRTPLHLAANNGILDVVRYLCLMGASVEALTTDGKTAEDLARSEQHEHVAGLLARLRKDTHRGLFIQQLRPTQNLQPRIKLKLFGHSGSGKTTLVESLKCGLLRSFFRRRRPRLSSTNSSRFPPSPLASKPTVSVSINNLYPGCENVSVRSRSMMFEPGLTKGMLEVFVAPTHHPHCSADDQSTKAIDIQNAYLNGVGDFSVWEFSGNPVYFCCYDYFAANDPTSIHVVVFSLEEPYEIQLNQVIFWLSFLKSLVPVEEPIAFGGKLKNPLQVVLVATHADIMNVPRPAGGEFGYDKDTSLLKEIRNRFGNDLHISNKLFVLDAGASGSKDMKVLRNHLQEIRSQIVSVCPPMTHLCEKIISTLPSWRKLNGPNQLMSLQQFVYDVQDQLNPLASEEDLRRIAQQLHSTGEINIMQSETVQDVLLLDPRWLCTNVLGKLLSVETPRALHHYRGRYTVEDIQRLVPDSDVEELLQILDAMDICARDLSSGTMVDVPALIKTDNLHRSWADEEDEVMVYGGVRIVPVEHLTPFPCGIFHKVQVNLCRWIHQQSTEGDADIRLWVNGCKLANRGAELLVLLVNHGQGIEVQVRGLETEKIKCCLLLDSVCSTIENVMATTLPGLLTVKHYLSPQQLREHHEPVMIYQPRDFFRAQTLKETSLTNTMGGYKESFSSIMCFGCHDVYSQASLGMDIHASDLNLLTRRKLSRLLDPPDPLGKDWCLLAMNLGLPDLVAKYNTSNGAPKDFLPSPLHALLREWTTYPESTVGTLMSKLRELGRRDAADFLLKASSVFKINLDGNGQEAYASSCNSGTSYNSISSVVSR
Experimental: as §1

EF2K = EF2K (Homo sapiens, UniProt O00418); details: 100 μM compound, 5 μM ATP; read-out: Kinase activity, % of activity in the absence of inhibitor
Experimental: as §1

ERK8 = target: T2, ERK8 (Homo sapiens, UniProt Q8TD08); details: 100 μM compound, 5 μM ATP; read-out: Kinase activity, % of activity in the absence of inhibitor
T2 sequence (Q8TD08 1-544): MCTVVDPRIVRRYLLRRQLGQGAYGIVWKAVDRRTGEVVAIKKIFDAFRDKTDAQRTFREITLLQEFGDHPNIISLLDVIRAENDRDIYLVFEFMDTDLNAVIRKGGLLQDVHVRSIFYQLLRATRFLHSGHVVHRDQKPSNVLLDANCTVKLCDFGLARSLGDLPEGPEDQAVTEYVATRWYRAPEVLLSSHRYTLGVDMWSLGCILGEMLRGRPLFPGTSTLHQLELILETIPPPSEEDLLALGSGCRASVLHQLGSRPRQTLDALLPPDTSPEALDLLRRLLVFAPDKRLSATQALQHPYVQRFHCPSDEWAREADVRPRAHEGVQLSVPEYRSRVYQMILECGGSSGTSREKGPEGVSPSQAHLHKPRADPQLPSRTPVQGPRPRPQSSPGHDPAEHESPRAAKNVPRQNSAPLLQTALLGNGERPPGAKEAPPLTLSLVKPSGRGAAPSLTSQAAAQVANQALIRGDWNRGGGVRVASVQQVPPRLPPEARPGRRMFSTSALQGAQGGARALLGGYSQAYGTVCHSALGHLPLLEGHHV
Experimental: as §1

GSK3β = GSK3β (Homo sapiens, UniProt P49841); details: 100 μM compound, 5 μM ATP; read-out: Kinase activity, % of activity in the absence of inhibitor
Chain of GSK3β (P49841 whole entry): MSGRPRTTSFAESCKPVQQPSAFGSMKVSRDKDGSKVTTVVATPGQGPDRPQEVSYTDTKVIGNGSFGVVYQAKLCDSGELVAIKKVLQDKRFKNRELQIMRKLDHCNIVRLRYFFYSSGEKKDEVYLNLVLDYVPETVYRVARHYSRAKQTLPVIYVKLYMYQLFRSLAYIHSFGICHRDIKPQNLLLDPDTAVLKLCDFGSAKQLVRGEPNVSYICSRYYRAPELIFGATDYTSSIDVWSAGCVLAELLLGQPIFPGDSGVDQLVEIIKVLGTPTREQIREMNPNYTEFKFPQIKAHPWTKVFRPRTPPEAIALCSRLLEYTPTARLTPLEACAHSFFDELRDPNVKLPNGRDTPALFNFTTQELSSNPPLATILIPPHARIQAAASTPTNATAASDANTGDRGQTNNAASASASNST
Experimental: as §1

HIPK2 = HIPK2 (Homo sapiens, UniProt Q9H2X6); details: 100 μM compound, 5 μM ATP; read-out: Kinase activity, % of activity in the absence of inhibitor
Chain of HIPK2 (Q9H2X6 whole entry): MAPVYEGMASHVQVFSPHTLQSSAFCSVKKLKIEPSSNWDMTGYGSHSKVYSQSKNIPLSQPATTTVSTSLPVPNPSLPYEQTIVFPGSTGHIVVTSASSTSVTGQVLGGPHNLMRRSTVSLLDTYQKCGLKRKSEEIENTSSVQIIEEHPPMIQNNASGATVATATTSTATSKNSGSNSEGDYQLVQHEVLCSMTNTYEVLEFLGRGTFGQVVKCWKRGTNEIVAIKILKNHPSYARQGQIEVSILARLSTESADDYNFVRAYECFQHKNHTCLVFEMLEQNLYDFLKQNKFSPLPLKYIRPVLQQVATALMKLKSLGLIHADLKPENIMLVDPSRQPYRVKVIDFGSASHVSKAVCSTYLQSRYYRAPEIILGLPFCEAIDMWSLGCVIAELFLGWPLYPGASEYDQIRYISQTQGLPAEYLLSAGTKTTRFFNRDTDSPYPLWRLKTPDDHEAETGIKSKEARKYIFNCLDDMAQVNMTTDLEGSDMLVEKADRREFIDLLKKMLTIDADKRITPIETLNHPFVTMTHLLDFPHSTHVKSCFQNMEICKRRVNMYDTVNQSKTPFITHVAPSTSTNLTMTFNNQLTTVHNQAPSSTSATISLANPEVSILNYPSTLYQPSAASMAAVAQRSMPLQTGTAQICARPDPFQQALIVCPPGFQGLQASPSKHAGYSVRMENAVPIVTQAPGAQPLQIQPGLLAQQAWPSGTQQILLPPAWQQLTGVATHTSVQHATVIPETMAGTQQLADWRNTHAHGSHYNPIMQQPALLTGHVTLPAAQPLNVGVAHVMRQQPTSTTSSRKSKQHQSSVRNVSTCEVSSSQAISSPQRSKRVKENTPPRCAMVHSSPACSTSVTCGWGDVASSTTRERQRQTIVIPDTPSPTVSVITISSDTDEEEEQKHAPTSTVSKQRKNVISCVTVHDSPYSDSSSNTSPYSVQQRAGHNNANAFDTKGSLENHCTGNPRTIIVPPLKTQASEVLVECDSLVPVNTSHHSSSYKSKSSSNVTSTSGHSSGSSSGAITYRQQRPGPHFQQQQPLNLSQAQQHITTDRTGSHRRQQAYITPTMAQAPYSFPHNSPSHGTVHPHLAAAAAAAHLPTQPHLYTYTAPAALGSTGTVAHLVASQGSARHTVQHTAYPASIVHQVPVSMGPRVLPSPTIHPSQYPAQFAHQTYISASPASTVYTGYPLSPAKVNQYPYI
Experimental: as §1

MARK4 = target: T3, MARK4 (Homo sapiens, UniProt Q96L34); details: 100 μM compound, 50 μM ATP; read-out: Kinase activity, % of activity in the absence of inhibitor
T3 sequence (Q96L34 1-752): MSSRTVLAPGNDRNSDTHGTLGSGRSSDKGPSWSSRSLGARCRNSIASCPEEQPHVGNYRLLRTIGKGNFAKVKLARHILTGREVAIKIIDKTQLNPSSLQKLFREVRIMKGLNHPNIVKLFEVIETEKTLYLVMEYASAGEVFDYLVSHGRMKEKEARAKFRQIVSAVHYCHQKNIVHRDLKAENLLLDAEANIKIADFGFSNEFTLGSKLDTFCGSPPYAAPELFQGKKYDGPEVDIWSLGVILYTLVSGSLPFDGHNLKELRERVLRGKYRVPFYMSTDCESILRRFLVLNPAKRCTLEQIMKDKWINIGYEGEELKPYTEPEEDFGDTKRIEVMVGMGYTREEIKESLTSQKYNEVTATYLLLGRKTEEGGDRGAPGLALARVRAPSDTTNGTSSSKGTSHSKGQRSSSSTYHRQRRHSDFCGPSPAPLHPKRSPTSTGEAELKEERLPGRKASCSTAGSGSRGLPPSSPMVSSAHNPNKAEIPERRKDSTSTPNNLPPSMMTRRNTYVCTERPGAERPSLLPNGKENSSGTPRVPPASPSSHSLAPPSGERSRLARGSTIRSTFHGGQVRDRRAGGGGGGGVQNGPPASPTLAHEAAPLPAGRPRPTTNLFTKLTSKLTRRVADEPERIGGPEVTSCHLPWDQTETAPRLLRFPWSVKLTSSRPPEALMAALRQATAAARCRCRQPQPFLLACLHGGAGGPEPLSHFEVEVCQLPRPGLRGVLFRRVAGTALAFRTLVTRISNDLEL
Experimental: as §1

MKK1 = MKK1 (Homo sapiens, UniProt Q02750); details: 100 μM compound, 5 μM ATP; read-out: Kinase activity, % of activity in the absence of inhibitor
Chain of MKK1 (Q02750 whole entry): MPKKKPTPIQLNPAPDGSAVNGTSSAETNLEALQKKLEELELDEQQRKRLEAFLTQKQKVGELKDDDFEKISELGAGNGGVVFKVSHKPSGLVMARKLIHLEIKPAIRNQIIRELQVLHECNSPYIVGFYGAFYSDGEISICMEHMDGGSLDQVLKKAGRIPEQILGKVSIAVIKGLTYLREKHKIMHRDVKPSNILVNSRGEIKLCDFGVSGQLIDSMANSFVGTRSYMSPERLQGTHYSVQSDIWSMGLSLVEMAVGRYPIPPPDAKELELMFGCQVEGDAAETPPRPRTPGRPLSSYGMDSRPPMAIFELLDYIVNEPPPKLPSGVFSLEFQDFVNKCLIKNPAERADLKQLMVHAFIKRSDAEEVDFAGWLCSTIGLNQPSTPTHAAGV
Experimental: as §1

PAK2 = PAK2 (Homo sapiens, UniProt Q13177); details: 100 μM compound, 20 μM ATP; read-out: Kinase activity, % of activity in the absence of inhibitor
Chain of PAK2 (Q13177 whole entry): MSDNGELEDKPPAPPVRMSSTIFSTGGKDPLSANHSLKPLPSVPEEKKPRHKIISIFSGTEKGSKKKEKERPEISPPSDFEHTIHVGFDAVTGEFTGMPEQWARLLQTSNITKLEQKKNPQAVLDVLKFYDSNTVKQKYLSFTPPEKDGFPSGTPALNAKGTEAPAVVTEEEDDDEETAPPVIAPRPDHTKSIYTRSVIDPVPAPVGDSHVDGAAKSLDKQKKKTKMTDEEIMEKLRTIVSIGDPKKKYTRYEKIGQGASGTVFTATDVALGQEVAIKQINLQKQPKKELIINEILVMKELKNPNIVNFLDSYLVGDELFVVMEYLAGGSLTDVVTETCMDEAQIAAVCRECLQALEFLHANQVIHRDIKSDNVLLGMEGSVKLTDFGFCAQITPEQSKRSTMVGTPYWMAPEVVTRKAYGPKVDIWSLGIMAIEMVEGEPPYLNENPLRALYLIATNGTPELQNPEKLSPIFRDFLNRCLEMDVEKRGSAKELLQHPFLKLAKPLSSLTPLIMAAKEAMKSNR
Experimental: as §1

Chain of ABL (P00519 whole entry, the tested form may be a part): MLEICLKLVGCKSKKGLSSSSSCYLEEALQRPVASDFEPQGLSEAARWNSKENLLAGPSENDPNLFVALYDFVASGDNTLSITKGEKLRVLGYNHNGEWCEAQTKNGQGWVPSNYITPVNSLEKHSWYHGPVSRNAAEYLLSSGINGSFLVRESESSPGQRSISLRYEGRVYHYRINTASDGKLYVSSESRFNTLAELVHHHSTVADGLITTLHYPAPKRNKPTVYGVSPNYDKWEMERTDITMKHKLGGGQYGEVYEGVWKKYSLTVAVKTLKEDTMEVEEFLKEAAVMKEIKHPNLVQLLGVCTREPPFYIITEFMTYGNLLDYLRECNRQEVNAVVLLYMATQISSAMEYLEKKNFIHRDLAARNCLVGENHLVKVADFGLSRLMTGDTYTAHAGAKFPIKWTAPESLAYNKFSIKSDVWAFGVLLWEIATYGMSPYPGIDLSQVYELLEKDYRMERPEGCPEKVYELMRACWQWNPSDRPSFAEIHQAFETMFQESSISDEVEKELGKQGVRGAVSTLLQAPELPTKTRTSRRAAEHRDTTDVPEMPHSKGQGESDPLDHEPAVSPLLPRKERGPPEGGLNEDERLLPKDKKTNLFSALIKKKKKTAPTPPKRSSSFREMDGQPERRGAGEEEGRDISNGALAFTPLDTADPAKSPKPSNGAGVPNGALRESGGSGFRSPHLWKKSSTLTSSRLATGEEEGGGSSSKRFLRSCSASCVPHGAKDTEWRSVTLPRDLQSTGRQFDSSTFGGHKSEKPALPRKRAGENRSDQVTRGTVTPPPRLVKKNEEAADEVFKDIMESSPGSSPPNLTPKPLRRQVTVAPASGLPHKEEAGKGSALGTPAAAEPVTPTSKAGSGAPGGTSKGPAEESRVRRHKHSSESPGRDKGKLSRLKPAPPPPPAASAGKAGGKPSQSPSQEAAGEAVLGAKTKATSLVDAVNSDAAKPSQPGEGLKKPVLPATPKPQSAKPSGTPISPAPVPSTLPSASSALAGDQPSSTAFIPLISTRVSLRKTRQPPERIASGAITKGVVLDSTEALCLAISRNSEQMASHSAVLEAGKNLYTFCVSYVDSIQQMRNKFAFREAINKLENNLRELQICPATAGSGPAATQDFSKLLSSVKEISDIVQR

Compound | activity at 100 µM (ABL) [%] | activity at 100 µM (BRSK1) [%] | activity at 100 µM (CDK2-Cyclin A) [%] | activity at 100 µM (DAPK1) [%] | activity at 100 µM (EF2K) [%] | activity at 100 µM (ERK8) [%] | activity at 100 µM (GSK3β) [%] | activity at 100 µM (HIPK2) [%] | activity at 100 µM (MARK4) [%] | activity at 100 µM (MKK1) [%] | activity at 100 µM (PAK2) [%]
Nc1ncnc2c1ncn2C1OC(COP(=O)(O)OP(=O)(O)O)C(O)C1O (stereo not drawn) [ADP] | 22.9 | 42.8 | 26.3 | 10.3 | 86.2 | 16.6 | 18.2 | 16.5 | 49.1 | 16.4 | 90.3
CC(C)(COP(=O)(O)OP(=O)(O)OC[C@H]1O[C@@H](n2cnc3c(N)ncnc32)[C@H](O)[C@@H]1OP(=O)(O)O)[C@@H](O)C(=O)NCCC(=O)NCCS [CoA, Coenzyme A] | 111 | 110 | 93.2 | 106 | 67.1 | 101 | 94.7 | 153 | 87.7 | 107 | 88.8
CC(C)(COP(=O)(O)OP(=O)(O)OCC1OC(n2cnc3c(N)ncnc32)C(O)C1O)C(O)C(=O)NCCC(=O)NCCS (stereo not drawn) [dpCoA, dephospho-CoA] | 98 | 96.4 | 81.1 | 64.4 | 103 | 38.5 | 72.1 | 73.4 | 86.6 | 52.3 | 112
